Tested on: B16/F10 melanoma
Experiment: B16/F10 melanoma tumor growth
Assay type: in vivo, mice
Details: 45 mg/kg on day 0, day 4 and day 8
Source text: FIG. 6. Effect of BLN101 on tumor growth inhibition. […] To validate the therapeutic efficacy of AK750, we randomly sorted mice bearing B16/F10 melanoma into three groups and treated each group with one of the following: blank vehicle (control); AK750; and BLZ945. The mice injected with vehicle formed large tumors by Day 10 (the day of first injection being Day 0), and consequently were killed. The animals in the other groups were also killed at the same time point to evaluate the effect of the treatments on tumor pathology. […] Changes in body weight were within the acceptable limits.
Activity Studies of Compound of Formula I • Efficacy of BLN101 vs BLZ945 on the ability to inhibit CSF1R in vitro is studied. RAW264.7 cells are treated with BLZ945 (67 nM) or BLN101 (67 nM) for different time points, at the end of which the cells were exposed to CSF1 (10 ng/ml) for 20 min. The cells were then lysed and analyzed for phosphorylated CSF1R levels. […] Efficacy of BLN101 (in formulation AK750) vs BLZ945 on increase in iNOS expression in vitro is studied. It is observed that exposure to Tumor Conditioned Media over 24 h decreases INOS levels. […] At different time-points, the cells are harvested and analyzed the population for M1 (MHCII+, CD86+, CD80+) or M2 (CD206+) markers using fluorescence activated cell sorting (FIG. 5d). […]

Compound: CNC(=O)c1cc(Oc2ccc3nc(N[C@@H]4CCCC[C@H]4O)sc3c2)ccn1 [BLZ-945]
- tumor growth: decreased tumor growth compared with vehicle-treated animals
